Source: ChEMBL document CHEMBL3638751, “5-alkynyl-pyridines” (2013)

Biological target: Phosphatidylinositol 4,5-bisphosphate 3-kinase catalytic subunit alpha isoform (Homo sapiens, UniProt P42336)
Experiment: Filter-Binding-Assay: This PI3Kalpha assay provides an IC50 value indicative of the activity of the compounds to inhibit PI3 kinase alpha activity. Inhibition of PI3 kinase would be expected to be indicative of activity in treating conditions of excessive or anomalous cell proliferation, such as cancers. See also J. A. Engelman, Nature Reviews Cancer, 2009, 9, 550-562; A. Carnero, Expert Opin. Investig. Drugs, 2009, 18, 1265-1277 and P. Liu et al., Nature Reviews Drug Discovery, 2009, 8, 627-64.

Chain of Phosphatidylinositol 4,5-bisphosphate 3-kinase catalytic subunit alpha isoform (P42336 whole entry, canonical isoform): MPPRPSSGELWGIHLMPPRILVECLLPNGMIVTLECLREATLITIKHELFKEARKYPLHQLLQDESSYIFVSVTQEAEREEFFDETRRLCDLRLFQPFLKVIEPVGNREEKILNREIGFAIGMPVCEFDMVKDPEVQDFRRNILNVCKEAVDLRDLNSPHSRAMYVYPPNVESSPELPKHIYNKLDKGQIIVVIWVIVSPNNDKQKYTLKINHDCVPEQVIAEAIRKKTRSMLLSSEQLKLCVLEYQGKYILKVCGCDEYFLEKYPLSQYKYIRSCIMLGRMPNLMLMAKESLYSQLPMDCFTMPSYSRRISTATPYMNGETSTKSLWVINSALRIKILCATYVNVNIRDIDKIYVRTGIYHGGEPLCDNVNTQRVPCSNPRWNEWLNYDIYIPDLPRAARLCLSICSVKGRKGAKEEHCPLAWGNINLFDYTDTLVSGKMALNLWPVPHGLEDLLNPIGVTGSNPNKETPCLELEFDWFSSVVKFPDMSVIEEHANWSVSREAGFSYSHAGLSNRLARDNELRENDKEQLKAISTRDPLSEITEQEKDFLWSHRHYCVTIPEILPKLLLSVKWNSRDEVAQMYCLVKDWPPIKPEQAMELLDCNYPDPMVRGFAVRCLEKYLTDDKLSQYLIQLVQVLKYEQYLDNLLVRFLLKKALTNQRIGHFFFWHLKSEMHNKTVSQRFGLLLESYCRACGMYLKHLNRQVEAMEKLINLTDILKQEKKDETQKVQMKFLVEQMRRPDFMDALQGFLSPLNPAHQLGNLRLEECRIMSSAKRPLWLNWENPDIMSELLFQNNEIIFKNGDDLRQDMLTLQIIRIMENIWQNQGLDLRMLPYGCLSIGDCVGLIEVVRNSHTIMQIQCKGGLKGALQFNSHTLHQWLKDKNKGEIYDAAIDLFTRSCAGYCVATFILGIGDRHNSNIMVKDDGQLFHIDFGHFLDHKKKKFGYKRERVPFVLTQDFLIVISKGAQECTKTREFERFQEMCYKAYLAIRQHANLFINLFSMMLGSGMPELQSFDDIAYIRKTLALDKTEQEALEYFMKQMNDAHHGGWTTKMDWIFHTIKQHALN

IC50 [nM]	SMILES
0.86	CCc1ncnc(N2CCC(O)CC2)c1C#Cc1cnc(C)c(NS(C)(=O)=O)c1
0.56	Cc1ncc(C#Cc2c(C)ncnc2N2CCOCC2)cc1NS(=O)(=O)c1cnn(C)c1
